“And” between values parts separate entries of the source, which are not always exact repeats. Equal values may be shown once. Read-outs that look alike come from different tables or passages of the source.
What was measured:
NF2 VSs = details: NF2 VS patients; cited from earlier work
primary SCs [1] = test: BrdU proliferation assay in primary Schwann cell cultures; assay type: cell-based, human; details: 48 hours
Experimental: (§1) Proliferation rate of 12 VS cultures was assessed and correlated with the tumor volume in the latest gadolinium enhanced T1-weighted MRI scan prior to surgical resection, and with tumor growth in vivo, measured as changes in the tumor's volume over time calculated from serial MRI scans. Tumor growth was standardized by dividing the growth rate by the initial tumor volume. Separate analyses were performed for solid tumors, which generally account for approximately 96% of VSs (Charabi et al., 1994), versus all studied tumors, which included 4 out of 13 total tumors with a visible cystic component, because cystic components could misrepresent true tumor volume (Charabi et al., 1994). To determine the level of cell proliferation in the cultures, Bromodeoxyuridine (BrdU) was added to the cells at a concentration of 10 μg/ml 20 hours before the cells were fixed. The cells were kept in the dark after the addition of BrdU Immunofluorescence protocol was followed as described under ‘Immunofluorescence,’ and cell and nuclear membranes were permeablized by incubation in 1% Triton-X for 10 minutes and by incubation in 2N Hydrochloric acid for 20 minutes, respectively, after fixation. Primary antibody against BrdU (AbD Serotec, NC, 1:200) and anti-rat IgG (Life Technologies, NY, 1:1000) were used. BrdU- and Hoechst-stained nuclei were counted in 3-5 fields and the ratio of BrdU positive to Hoechst positive nuclei was used to determine the proliferation rate in vitro.
(§2) Cultured human primary VS cells, primary SCs and HEI-193 cells were treated with NF-κB inhibitors BAY11-7082 (BAY11) or curcumin for 48 hours (Santa Cruz Biotechnology). BAY11 or curcumin, diluted in 100% DMSO, were mixed to the accurate concentrations in warmed media and applied to the cultures (with DMSO concentration in media being 1% maximum), alongside a no-treatment control receiving media alone with appropriate corresponding DMSO levels. Experiments were performed in media fortified with antibiotics and serum (same formulation as described in Example 1 for culturing cells).
(§3) After 48 hours of treatment, primary VS and Schwann cultures were fixed for BrdU staining, to visualize proliferation, or TUNEL staining, to visualize cell death. The same methodology as described in Example 1 was utilized. Cleaved caspase 3 staining, another apoptosis marker to reinforce findings using TUNEL, was conducted using an antibody against cleaved caspase 3 following the ‘immunofluorescence’ protocol outlined in Example 1.
(§4) The cultures were incubated with the drugs for 48 hours. To label proliferating cells, BrdU was added 20 hours before fixation. pH was measured in the media after drug addition to ensure no significant deviations.
(§5) After 48 hours of treatment with salicylates, primary VS and SC cultures were fixed for BrdU staining, to visualize proliferation, or TUNEL staining, to visualize cell death. The same methodology as described in Example 1 was utilized.

primary VS cells [2] = test: TUNEL cell death assay in primary VS cultures; assay type: cell-based, human; details: 48 hours
Experimental: Rate of apoptosis in 6 VS cultures was assessed and correlated with tumor growth in vivo and tumor volume. […] Apoptosis was measured using terminal deoxynucleotidyl transferase dUTP nick end labeling (TUNEL, Roche Applied Sciences, NY) following manufacturer's instructions. Briefly, immunofluorescence protocol was followed as described under ‘Immunofluorescence,’ until fixations, then the cells were washed with PBS thrice and incubated in 1% Triton-X for 10 minutes on shaker. The cells were washed with PBS once and incubated in TUNEL mix for 1 hour at 37° C., then for 30 minutes at RT on shaker. The cells were then incubated in rhodamine phalloidin (Life Technologies, NY, 1:40) and Hoechst stain for 20 minutes, washed with PBS thrice and mounted onto slides for imaging. TUNEL and Hoechst stained nuclei were counted in >3 fields and the ratio of TUNEL positive to Hoechst positive nuclei was used to determine apoptosis rate in vitro. A positive control of 10 minutes-DNAse (Roche Applied Sciences, NY) treatment prior to TUNEL labeling was utilized.
(§6) For siRNA treatment, cultured primary VS cells or HEI-193 cells were placed in antibiotic and serum free media overnight. The next day, the cells were incubated with Life Technologies siRNAs targeting NF-κB genes RELA and NF-κB1, with control cells being treated with vehicle only (Lipofectamine RNAiMax), for 5 days. Some cultures were also incubated with a fluorescent random Oligo (Life Technologies) along with vehicle to assess transfection efficiency. siRNA experiments were performed in antibiotic and serum free media.
BAY11 or curcumin, diluted in 100% DMSO, were mixed to the accurate concentrations in warmed media and applied to the cultures (with DMSO concentration in media being 1% maximum), alongside a no-treatment control receiving media alone with appropriate corresponding DMSO levels.
After 48 hours of treatment, primary VS and Schwann cultures were fixed for BrdU staining, to visualize proliferation, or TUNEL staining, to visualize cell death.
After 48 hours of treatment with salicylates, primary VS and SC cultures were fixed for BrdU staining, to visualize proliferation, or TUNEL staining, to visualize cell death.

COX-2 = details: 48 hours, VS culture media
Experimental: Prostaglandin (PTG) E2 was assayed in the media of VS cultures using the Prostaglandin E2 Parameter Assay Kit (R&D Systems, KGE004B). The media was collected after 48 hours of treatment from non-treated and treated cultured cells. Manufacturer's instructions were closely followed.
as §4

primary VS cells [3] = test: BrdU proliferation assay in primary VS cultures; assay type: cell-based, human; details: for proliferation, of the NT cells / proliferation, of the non-treated cells: 48 hours
Experimental: as §1, with “vitro. […]” for “vitro.”
as §2, §3, §4, §5
To understand cross-talk between HGF and VEGF-A pathway, cultured VS cells were incubated with Life Technologies silencer select siRNAs targeting VEGFA (s461) or MET (s8700). To understand whether HGF signaling contributed to VS proliferation, cultured VS cells were treated with MET inhibitor SU11274 (Sigma-Aldrich, MO, #S9820). Seventy-two hours after siRNA treatment or 12 hours after treatment with SU11274 (2 μM), cells were incubated with 10 μg/mL BrdU (Life Technologies, NY, # B23151) for 20 hours before fixation.

HEI-193 NF2 VS cell line [4] = test: BrdU proliferation assay in HEI-193 cells; assay type: cell-based, human; details: for normalized proliferation rate: 48 hours
Experimental: as §1
(§7) The same methodology as described in Example 1 was utilized for primary VS and SC cultures. Cultures were treated with NF-κB inhibitors approximately after 2 weeks of culturing. HEI-193 cell line was a gift from Dr. Giovannini at the House Ear Institute (Hung et al., 2002a).
as §6, §2, §3

primary SCs [5] = test: TUNEL cell death assay in primary Schwann cell cultures; assay type: cell-based, human; details: 48 hours
Experimental: (§8) Rate of apoptosis in 6 VS cultures was assessed and correlated with tumor growth in vivo and tumor volume. Two out of the six VS had cystic components. Apoptosis was measured using terminal deoxynucleotidyl transferase dUTP nick end labeling (TUNEL, Roche Applied Sciences, NY) following manufacturer's instructions. Briefly, immunofluorescence protocol was followed as described under ‘Immunofluorescence,’ until fixations, then the cells were washed with PBS thrice and incubated in 1% Triton-X for 10 minutes on shaker. The cells were washed with PBS once and incubated in TUNEL mix for 1 hour at 37° C., then for 30 minutes at RT on shaker. The cells were then incubated in rhodamine phalloidin (Life Technologies, NY, 1:40) and Hoechst stain for 20 minutes, washed with PBS thrice and mounted onto slides for imaging. TUNEL and Hoechst stained nuclei were counted in >3 fields and the ratio of TUNEL positive to Hoechst positive nuclei was used to determine apoptosis rate in vitro. A positive control of 10 minutes-DNAse (Roche Applied Sciences, NY) treatment prior to TUNEL labeling was utilized.
as §2, §3

HEI-193 NF2 VS cell line [6] = test: TUNEL cell death assay in HEI-193 cells; assay type: cell-based, human; details: 48 hours
Experimental: as §8, §7, §6, §2, §3

bevacizumab
patients with decrease in tumor size / volume (NF2 VSs): 55%
patients with hearing improvement (NF2 VSs): 57%

CS(=O)(=O)CCNCc1ccc(-c2ccc3ncnc(Nc4ccc(OCc5cccc(F)c5)c(Cl)c4)c3c2)o1 [Lapatinib, lapatinib]
patients with decrease in tumor size / volume (NF2 VSs): approximately 24%
patients with hearing improvement (NF2 VSs): ~31%

O=C([O-])c1ccccc1O.[Na+] [NaSal, sodium salicylate]
proliferation, of the NT cells (primary SCs [1]; 5 mM): 104.4±13.2%
proliferation, of the NT cells (primary SCs [1]; 10 mM): 64.9±18.9%
cell death rate (primary VS cells [2]; 5 mM): 3.3±2.3%
secreted PTG levels, of NT cells (COX-2; 1 mM): 3.8%
secreted PTG levels, of NT cells (COX-2; 5 mM): 32.2%
proliferation, of the NT cells (primary VS cells [3]; 1 mM): 18% and 18.9±5.0%
proliferation, of the NT cells (primary VS cells [3]; 5 mM): 25.4±11.1%
proliferation, of the NT cells (primary VS cells [3]; 10 mM): 20.6±11.2%

Cc1ccc(S(=O)(=O)/C=C/C#N)cc1 [BAY11, BAY11-7082]
normalized proliferation rate (primary SCs [1]; 1 μM): 165.2±125.1%
normalized proliferation rate (primary SCs [1]; 5 μM): 133.2±101.1%
normalized proliferation rate, of the NT cells (primary SCs [1]; 1 mM): 130.2±65.6%
normalized proliferation rate (HEI-193 NF2 VS cell line [4]; 10 μM): 65.6±24.6%
normalized proliferation rate (HEI-193 NF2 VS cell line [4]; 100 μM): 9.1±4.9%
normalized proliferation rate (HEI-193 NF2 VS cell line [4]): 4.3±3.3%
higher concentration needed to reduce proliferation and survival than in primary VS cells (HEI-193 NF2 VS cell line [4]; NF2 VS cell line versus primary VS cells): ~10 fold
cell death rate (primary VS cells [2]; 1 μM): 36±13%
cell death rate (primary VS cells [2]; 5 μM): 47±12%
apoptosis / cell death rate (primary SCs [5]; 1 μM): 1.0±0.7%
apoptosis / cell death rate (primary SCs [5]; 5 μM): 0.7±0.7%
proliferation, of the non-treated cells (primary VS cells [3]; 1 μM): 54.7±22.8%
proliferation, of the non-treated cells (primary VS cells [3]; 5 μM): 14%
proliferation, of the non-treated cells (primary VS cells [3]; 5 μM, listed as BAY 11): 14.3±9.7%
effective therapeutic window to target VS cells (primary VS cells [3]; from primary VS and SC culture results combined): around 5 μM
cell death rate (HEI-193 NF2 VS cell line [6]; 1 μM): 1.3±0.5%
cell death rate (HEI-193 NF2 VS cell line [6]; 5 μM): 1.9±1.2%
cell death rate (HEI-193 NF2 VS cell line [6]; 10 μM): 1.1±1.1%
cell death rate (HEI-193 NF2 VS cell line [6]; 100 μM): 58.8±21.5%
cell death rate (HEI-193 NF2 VS cell line [6]): 55.3±16.9%
